From the NIST ThermoML archive (doi:10.1021/je500205z)
Numbers after ± are expanded uncertainties. Blank lines part the entries; values can stand above or below the compound they belong to.

Tests used:
[1] = Maximal bubble pressure
[2] = an = ratio of the nth substance listed; conditions: 293.15 K, Maximal bubble pressure

surface tension liquid-gas ([1]; 293.15 K): 66.75 ± 0.77 mN/m
surface tension liquid-gas ([1]; 298.15 K): 63.9 ± 0.74 mN/m
surface tension liquid-gas ([1]; 303.15 K): 61.18 ± 0.71 mN/m
surface tension liquid-gas ([1]; 308.15 K): 58.46 ± 0.68 mN/m
surface tension liquid-gas ([1]; 313.15 K): 55.89 ± 0.65 mN/m
surface tension liquid-gas ([1]; 318.15 K): 53.02 ± 0.62 mN/m
surface tension liquid-gas ([1]; 323.15 K): 50.55 ± 0.59 mN/m
surface tension liquid-gas ([1]; 328.15 K): 48.14 ± 0.57 mN/m
surface tension liquid-gas ([1]; 333.15 K): 45.54 ± 0.54 mN/m
Compound: C=Cn1cc[n+](C(C)C(=O)OCC)c1.[Cl-] (configuration not stated)

Compound: C=C[n+]1ccn(CCCCCCCCCC)c1.[Br-] [1-decyl-3-ethenylimidazolium bromide]
surface tension liquid-gas ([1]; 293.15 K): 53.48 ± 0.63 mN/m
surface tension liquid-gas ([1]; 298.15 K): 50.63 ± 0.6 mN/m
surface tension liquid-gas ([1]; 303.15 K): 47.76 ± 0.56 mN/m
surface tension liquid-gas ([1]; 308.15 K): 44.56 ± 0.53 mN/m
surface tension liquid-gas ([1]; 313.15 K): 41.8 ± 0.5 mN/m
surface tension liquid-gas ([1]; 318.15 K): 39.03 ± 0.47 mN/m
surface tension liquid-gas ([1]; 323.15 K): 36.2 ± 0.44 mN/m
surface tension liquid-gas ([1]; 328.15 K): 33.77 ± 0.41 mN/m
surface tension liquid-gas ([1]; 333.15 K): 32.04 ± 0.39 mN/m

Compound: C=C[n+]1ccn(CCCCCCCCCC)c1.[Br-] [1-decyl-3-ethenylimidazolium bromide] + CC(C)=O
surface tension liquid-gas ([2]; a1 = 0.5403): 23.39 ± 0.38 mN/m

Compound: C=C[n+]1ccn(CCCCCCCCCC)c1.[Br-] [1-decyl-3-ethenylimidazolium bromide] + CCO
surface tension liquid-gas ([2]; a1 = 1.255): 22.27 ± 0.36 mN/m

Compound: C=C[n+]1ccn(CCCCCCCCCC)c1.[Br-] [1-decyl-3-ethenylimidazolium bromide] + ClC(Cl)Cl
surface tension liquid-gas ([2]; a1 = 0.7667): 27 ± 0.43 mN/m

Compound: C=C[n+]1ccn(CCCCCCCCCC)c1.[Br-] [1-decyl-3-ethenylimidazolium bromide] + O
surface tension liquid-gas ([2]; a1 = 3.263): 35.27 ± 0.37 mN/m

Compound: C=C[n+]1ccn(CCCCCCCCCC)c1.[Br-] [1-decyl-3-ethenylimidazolium bromide] + c1ccccc1
surface tension liquid-gas ([2]; a1 = 0.1035): 29.08 ± 0.46 mN/m

Compound: C=Cn1cc[n+](CCCCCCCC)c1.[Br-] [1-ethenyl-3-octylimidazolium bromide]
surface tension liquid-gas ([1]; 293.15 K): 59.74 ± 0.7 mN/m
surface tension liquid-gas ([1]; 298.15 K): 56.82 ± 0.66 mN/m
surface tension liquid-gas ([1]; 303.15 K): 54.04 ± 0.63 mN/m
surface tension liquid-gas ([1]; 308.15 K): 51.22 ± 0.6 mN/m
surface tension liquid-gas ([1]; 313.15 K): 48.55 ± 0.57 mN/m
surface tension liquid-gas ([1]; 318.15 K): 45.79 ± 0.54 mN/m
surface tension liquid-gas ([1]; 323.15 K): 43.18 ± 0.51 mN/m
surface tension liquid-gas ([1]; 328.15 K): 40.6 ± 0.49 mN/m
surface tension liquid-gas ([1]; 333.15 K): 38.24 ± 0.46 mN/m

Compound: C=Cn1cc[n+](CCCCCCCC)c1.[Br-] [1-ethenyl-3-octylimidazolium bromide] + CC(C)=O
surface tension liquid-gas ([2]; a1 = 0.5788): 23.94 ± 0.39 mN/m

Compound: C=Cn1cc[n+](CCCCCCCC)c1.[Br-] [1-ethenyl-3-octylimidazolium bromide] + CCO
surface tension liquid-gas ([2]; a1 = 1.497): 23.07 ± 0.37 mN/m

Compound: C=Cn1cc[n+](CCCCCCCC)c1.[Br-] [1-ethenyl-3-octylimidazolium bromide] + ClC(Cl)Cl
surface tension liquid-gas ([2]; a1 = 0.6921): 27.79 ± 0.44 mN/m

Compound: C=Cn1cc[n+](CCCCCCCC)c1.[Br-] [1-ethenyl-3-octylimidazolium bromide] + O
surface tension liquid-gas ([2]; a1 = 4.059): 38.86 ± 0.4 mN/m

Compound: C=Cn1cc[n+](CCCCCCCC)c1.[Br-] [1-ethenyl-3-octylimidazolium bromide] + c1ccccc1
surface tension liquid-gas ([2]; a1 = 0.08467): 29.32 ± 0.46 mN/m

surface tension liquid-gas ([1]; 303.15 K): 67.08 ± 0.78 mN/m
surface tension liquid-gas ([1]; 308.15 K): 64.11 ± 0.74 mN/m
surface tension liquid-gas ([1]; 313.15 K): 61.08 ± 0.71 mN/m
surface tension liquid-gas ([1]; 318.15 K): 58.28 ± 0.68 mN/m
surface tension liquid-gas ([1]; 323.15 K): 55.53 ± 0.65 mN/m
surface tension liquid-gas ([1]; 328.15 K): 53.24 ± 0.62 mN/m
surface tension liquid-gas ([1]; 333.15 K): 50.59 ± 0.59 mN/m
Compound: C=Cn1cc[n+](CCCCC)c1.[Br-] [1-ethenyl-3-pentylimidazolium bromide]

Compound: C=Cn1cc[n+](CCCCCC)c1.[Br-] [3-hexyl-1-vinyl-1H-imidazol-3-ium bromide]
surface tension liquid-gas ([1]; 293.15 K): 62.29 ± 0.72 mN/m
surface tension liquid-gas ([1]; 298.15 K): 59.52 ± 0.69 mN/m
surface tension liquid-gas ([1]; 303.15 K): 56.81 ± 0.66 mN/m
surface tension liquid-gas ([1]; 308.15 K): 53.95 ± 0.63 mN/m
surface tension liquid-gas ([1]; 313.15 K): 51.15 ± 0.6 mN/m
surface tension liquid-gas ([1]; 318.15 K): 48.44 ± 0.57 mN/m
surface tension liquid-gas ([1]; 323.15 K): 45.67 ± 0.54 mN/m
surface tension liquid-gas ([1]; 328.15 K): 43.01 ± 0.51 mN/m
surface tension liquid-gas ([1]; 333.15 K): 40.4 ± 0.48 mN/m

Compound: C=Cn1cc[n+](CCCCCC)c1.[Br-] [3-hexyl-1-vinyl-1H-imidazol-3-ium bromide] + CC(C)=O
surface tension liquid-gas ([2]; a1 = 0.6455): 24.3 ± 0.39 mN/m

Compound: C=Cn1cc[n+](CCCCCC)c1.[Br-] [3-hexyl-1-vinyl-1H-imidazol-3-ium bromide] + CCO
surface tension liquid-gas ([2]; a1 = 1.744): 25.16 ± 0.4 mN/m

Compound: C=Cn1cc[n+](CCCCCC)c1.[Br-] [3-hexyl-1-vinyl-1H-imidazol-3-ium bromide] + ClC(Cl)Cl
surface tension liquid-gas ([2]; a1 = 0.5682): 27.94 ± 0.44 mN/m

Compound: C=Cn1cc[n+](CCCCCC)c1.[Br-] [3-hexyl-1-vinyl-1H-imidazol-3-ium bromide] + O
surface tension liquid-gas ([2]; a1 = 5.388): 46.87 ± 0.46 mN/m

Compound: C=Cn1cc[n+](CCCCCC)c1.[Br-] [3-hexyl-1-vinyl-1H-imidazol-3-ium bromide] + c1ccccc1
surface tension liquid-gas ([2]; a1 = 0.02207): 29.6 ± 0.46 mN/m

Compound: CC(C)=O [acetone]
surface tension liquid-gas ([1]; 293.15 K): 23.7 ± 0.43 mN/m

surface tension liquid-gas ([1]; 293.15 K): 28.18 ± 0.5 mN/m
Compound: c1ccccc1 [benzene]

surface tension liquid-gas ([1]; 293.15 K): 22.27 ± 0.41 mN/m
Compound: CCO [ethanol]

surface tension liquid-gas ([1]; 293.15 K): 27.14 ± 0.48 mN/m
Compound: ClC(Cl)Cl [trichloromethane]
